± gives the expanded uncertainty stated by the source.
Key:
[1] = xn = mol fraction of the nth substance listed; conditions: 101.3 kPa, Liquid; for speed of sound: 298.15 K
[2] = 101.3 kPa, Liquid; for speed of sound: 298.15 K
[3] = molar heat capacity at constant pressure; conditions: 298.15 K; 101.3 kPa; Liquid; Flow calorimetry

CC#N [acetonitrile] + CC(=O)N(C)C
Conditions | speed of sound [m/s]
[1], x2 = 0 | 1279.6 ± 2.7

[1], x2 = 0
Conditions | mass density [kg/m3]
308.15 K | 765.735 ± 0.38
318.15 K | 755.763 ± 0.39

CC1COC(=O)O1 (configuration not stated) [4-methyl-1,3-dioxolan-2-one]
Conditions | molar heat capacity at constant pressure [J/K/mol] | speed of sound [m/s]
[2] | – | 1443 ± 2.9
[3] | 166.98 ± 1 | –

[2]
Conditions | mass density [kg/m3]
308.15 K | 1188.73 ± 0.34
318.15 K | 1179.31 ± 0.33

CC#N [acetonitrile] + CC1COC(=O)O1
Conditions | speed of sound [m/s]
[1], x2 = 0 | 1279.6 ± 2.7

[1], x2 = 0
Conditions | mass density [kg/m3]
308.15 K | 765.735 ± 0.38
318.15 K | 755.763 ± 0.39

CC#N [acetonitrile]
Conditions | speed of sound [m/s]
[2] | 1279.6 ± 2.7

[2]
Conditions | mass density [kg/m3]
308.15 K | 765.735 ± 0.38
318.15 K | 755.763 ± 0.39

CC(=O)N(C)C [N,N-dimethylethanamide] + CC#N
[1]
Conditions | speed of sound [m/s]
x1 = 0.04872 | 1286.5 ± 2.7
x1 = 0.1004 | 1297.5 ± 2.7
x1 = 0.1898 | 1315.5 ± 2.7
x1 = 0.2932 | 1336.4 ± 2.7
x1 = 0.4046 | 1357.3 ± 2.8
x1 = 0.503 | 1375.5 ± 2.8
x1 = 0.6044 | 1393.7 ± 2.8
x1 = 0.7074 | 1410.8 ± 2.9
x1 = 0.8048 | 1427.5 ± 2.9
x1 = 0.9035 | 1440 ± 2.9
x1 = 1 | 1458.7 ± 2.9

mass density [kg/m3], [1]
Conditions | 308.15 K | 318.15 K
x1 = 0.00994 | 768.688 ± 0.37 | –
x1 = 0.01091 | – | 759.018 ± 0.38
x1 = 0.02031 | 771.713 ± 0.37 | –
x1 = 0.02054 | – | 761.841 ± 0.38
x1 = 0.03016 | 774.535 ± 0.36 | –
x1 = 0.0309 | – | 764.83 ± 0.38
x1 = 0.04069 | 777.504 ± 0.36 | –
x1 = 0.04289 | – | 768.228 ± 0.37
x1 = 0.05104 | 780.389 ± 0.36 | –
x1 = 0.0529 | – | 771.009 ± 0.37
x1 = 0.05848 | 782.424 ± 0.36 | –
x1 = 0.05906 | – | 772.711 ± 0.37
x1 = 0.06932 | 785.313 ± 0.35 | –
x1 = 0.06978 | – | 775.606 ± 0.36
x1 = 0.08223 | 788.745 ± 0.35 | –
x1 = 0.08535 | – | 779.778 ± 0.36
x1 = 0.08742 | – | 780.299 ± 0.36
x1 = 0.09057 | 790.902 ± 0.35 | –
x1 = 0.1009 | 793.541 ± 0.34 | –
x1 = 0.1022 | – | 784.094 ± 0.35
x1 = 0.1438 | – | 794.432 ± 0.34
x1 = 0.1497 | 805.533 ± 0.33 | –
x1 = 0.1834 | – | 803.73 ± 0.33
x1 = 0.1884 | 814.49 ± 0.32 | –
x1 = 0.2301 | – | 813.975 ± 0.32
x1 = 0.237 | 824.887 ± 0.31 | –
x1 = 0.2935 | – | 826.829 ± 0.31
x1 = 0.3015 | 837.769 ± 0.3 | –
x1 = 0.387 | – | 843.966 ± 0.29
x1 = 0.4044 | 856.101 ± 0.28 | –
x1 = 0.503 | – | 862.53 ± 0.29
x1 = 0.5085 | 872.475 ± 0.27 | –
x1 = 0.6026 | – | 876.476 ± 0.29
x1 = 0.6251 | 888.44 ± 0.25 | –
x1 = 0.7047 | – | 889.23 ± 0.3
x1 = 0.7059 | 898.16 ± 0.23 | –
x1 = 0.8034 | 908.919 ± 0.21 | –
x1 = 0.8085 | – | 900.68 ± 0.32
x1 = 0.9024 | 918.675 ± 0.2 | –
x1 = 0.909 | – | 910.546 ± 0.35
x1 = 0.9117 | 919.547 ± 0.2 | –
x1 = 0.9144 | – | 911.049 ± 0.35
x1 = 0.9215 | – | 911.696 ± 0.21
x1 = 0.9216 | 920.459 ± 0.2 | –
x1 = 0.932 | – | 912.659 ± 0.21
x1 = 0.9322 | 921.402 ± 0.2 | –
x1 = 0.941 | 922.202 ± 0.2 | –
x1 = 0.9414 | – | 913.506 ± 0.2
x1 = 0.9515 | 923.129 ± 0.2 | –
x1 = 0.9546 | – | 914.681 ± 0.36
x1 = 0.9614 | 924 ± 0.2 | –
x1 = 0.963 | – | 915.423 ± 0.36
x1 = 0.9712 | 924.844 ± 0.19 | –
x1 = 0.9716 | – | 916.181 ± 0.2
x1 = 0.9809 | – | 916.988 ± 0.2
x1 = 0.9811 | 925.7 ± 0.19 | –
x1 = 0.9893 | 926.398 ± 0.19 | –
x1 = 0.9911 | – | 917.856 ± 0.37
x1 = 1 | 927.294 ± 0.19 | 918.616 ± 0.2

CC(=O)N(C)C [N,N-dimethylethanamide]
Conditions | speed of sound [m/s]
[2] | 1458.7 ± 2.9

[2]
Conditions | mass density [kg/m3]
308.15 K | 927.294 ± 0.19
318.15 K | 918.616 ± 0.2

Reference: the NIST ThermoML archive (doi:10.1021/je1005483)
